Here are results for 23 compounds from patent US20100216827A1 (Metabolex, Inc., priority 2008, published 2010).

This assay addresses T1, human GPR120 (Homo sapiens, UniProt Q5NUL3).
T1 construct: host or cells: HEK293 cells coexpressing Gqi5
T1 sequence (Q5NUL3 1-361): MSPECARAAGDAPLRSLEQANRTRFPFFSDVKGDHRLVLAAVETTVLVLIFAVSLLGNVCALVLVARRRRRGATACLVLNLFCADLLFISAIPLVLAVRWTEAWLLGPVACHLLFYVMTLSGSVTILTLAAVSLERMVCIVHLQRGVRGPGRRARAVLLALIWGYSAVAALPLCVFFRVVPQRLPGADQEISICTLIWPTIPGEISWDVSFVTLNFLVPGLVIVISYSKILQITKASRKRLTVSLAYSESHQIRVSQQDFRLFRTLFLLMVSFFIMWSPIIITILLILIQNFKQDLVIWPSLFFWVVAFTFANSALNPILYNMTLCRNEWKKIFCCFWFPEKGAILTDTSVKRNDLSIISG
As to the kind of experiment: Intracellular Ca2+ (FLIPR Calcium 4, Flexstation) assay in human GPR120 stable HEK293 cell line coexpressing Gqi5. In kind it is cell-based. The conditions noted are these: for % Activity at 5 μM: 5 μM compound compared to the maximal activity of GW9508 at 6.7 μM (100%); for EC50: human GPR120 stably expressing cells, 8 concentrations 0.00001 to 20 μM. On the procedure:
Human GPR120 stable cell line was purchased from Multispan Inc (26219 Eden Landing Road, Hayward, Calif. 94545). This GPR120 cell line was generated in HEK293 cells coexpressing Gqi5. In this cell line, the Flag epitope tag (DYKDDDDK) was fused to the amino terminus of human GPR120 protein.
The concentration of intracellular Ca^2+ was measured as described below. Human GPR120 cells were plated in 96 well plates (Poly-D-Lysine coated black/clear Plate, Greiner Bio-One) at 70,000 cells per well and cultured overnight in conditions of 37° C. and 5% CO2. A Ca^2+ assay dye stock solution was prepared by adding 10 mL of assay buffer (HBSS/20 mM HEPES, pH 7.4) to FLIPR Calcium 4 Assay Bulk Kit (Molecular Devices). The 10 mL of Ca^2+ assay dye solution was prepared by further diluting 0.5 mL of Ca^2+ assay dye stock solution with 10 mL of assay buffer. The medium of the cells was removed and immediately 100 μl of the Ca^2+ assay dye solution was dispensed into each well followed by incubation at 37° C. and 5% CO2 for 50 minutes to incorporate the Ca^2+ dye into the cells. The cell plate was then placed in the Flexstation (Molecular Devices) for 20 minutes at 37° C. Compounds were dissolved in 100% DMSO and diluted to desired concentrations with assay buffer and placed in Flexstation simultaneously with the cell plate for 20 minute incubation at 37° C. prior to reading. Fluorescence intensity was measured immediately following compound addition (25 μl/well) on the Flexstation at an excitation wavelength of 485 nm and an emission wavelength of 525 with 515 nm auto cutoff. The resulting increase in fluorescence intensities corresponds to increases in intracellular Ca^2+ levels.
Compounds were dissolved in 100% DMSO to a concentration of 20 mM to provide stock solutions. To determine activity against human GPR120, compounds were added with human GPR120 stably expressing cells (described above), at 8 desired concentrations ranging from 0.00001 to 20 μM, in 96 well plates and fluorescence intensities were measured for 90 seconds with 2-second intervals. An EC50 value (concentration of the GPR120 agonist where 50% of the agonist's maximal activity is observed) was calculated using the changes (Max-Min) of fluorescent intensity.
To determine percent activity for a tested compound, the fluorescence intensity value obtained at a particular concentration were compared to the maximal fluorescence intensity value obtained for reference compound GW9508 (4-[[(3-phenoxyphenyl)methyl]amino]benzene propanoic acid; British Journal of Pharmacology 2006 148, 619-628) that acts as a full agonist of the GPR120 receptor. The maximal activity of GW9508 is designated as 100% activity. Typically, the GW9508 activity reached a maximum at a concentration of approximately 6.7 μM. Activities of compounds that were tested according to this method are shown in Table 1 below and are expressed as % activity at 5 μM compound compared to the maximal activity of GW9508 at 6.7 μM.

Where [1] appears, read: read-out: EC50 between >1 μM and ≦10 μM.

The structures appear in SMILES notation. Where two headings read alike, the source gives them in different places. A value given as a limit tells only on which side of the number the result lay.

`CCc1ccc(-n2nc(C)cc2COc2c(F)cc(CC(C)C(=O)O)cc2F)cc1` (stereo not shown) [Example 83, 3-(4-((1-(4-ethylphenyl)-3-methyl-1H-pyrazol-5-yl)methoxy)-3,5-difluorophenyl)-2-methylpropanoic acid]: the “% Activity at 5 μM” value is 88%. Also, the EC50 (read-out: EC50 ≦ 1 μM) is no more than 1000 nM.

Consider `O=C(O)CCc1cc(F)c(OCc2snnc2-c2cccc(Cl)c2)c(F)c1` [Example 32, 3-(4-((4-(3-chlorophenyl)-1,2,3-thiadiazol-5-yl)methoxy)-3,5-difluorophenyl)propanoic acid], for which the “% Activity at 5 μM” value worked out at 85%. In addition, for the setting “read-out: EC50 ≦ 1 μM”, the concentration giving a half-maximal response (EC50) is no more than 1000 nM.

For the compound `O=C(O)CCc1cc(F)c(OCc2snnc2-c2ccc(F)cc2)c(F)c1` [Example 31, 3-(3,5-difluoro-4-((4-(4-fluorophenyl)-1,2,3-thiadiazol-5-yl)methoxy)phenyl)propanoic acid], the “% Activity at 5 μM” value came to 85%. Also, the EC50 (read-out: EC50 ≦ 1 μM) is no more than 1000 nM.

As for `Cc1cc(COc2c(F)cc(CCC(=O)O)cc2F)n(-c2ccccc2)n1` [Example 46, 3-(3,5-difluoro-4-((3-methyl-1-phenyl-1H-pyrazol-5-yl)methoxy)phenyl)propanoic acid], the “% Activity at 5 μM” value is given as 62%. Moreover, for the setting “read-out: EC50 ≦ 1 μM”, the EC50 is no more than 1000 nM.

For `O=C(O)CCc1cc(F)c(OCc2snnc2-c2ccccc2)c(F)c1` [Example 2], the “% Activity at 5 μM” value amounted to 77%. Further, the EC50 (read-out: EC50 ≦ 1 μM) is no more than 1000 nM.

With `Cc1nc(-c2ccccc2)c(COc2c(F)cc(CCC(=O)O)cc2F)s1` [Example 30], the “% Activity at 5 μM” value came out at 80%. Further, the EC50 under setting [1] was in the range of 1000 to 10000 nM.

`Cc1cc(COc2ccc(CC(C)C(=O)O)cc2C(F)(F)F)n(-c2ccc(Cl)cc2)n1` (stereo not shown) [Example 78, 3-(4-((1-(4-chlorophenyl)-3-methyl-1H-pyrazol-5-yl)methoxy)-3-(trifluoromethyl)phenyl)-2-methylpropanoic acid]: the “% Activity at 5 μM” value is recorded as 92%. Besides, the EC50 (read-out: EC50 ≦ 1 μM) is no more than 1000 nM.

As to `Cc1cc(COc2c(F)cc(CC(C)C(=O)O)cc2F)n(-c2cccc(Cl)c2)n1` (stereo not shown) [Example 89, 3-(4-((1-(3-chlorophenyl)-3-methyl-1H-pyrazol-5-yl)methoxy)-3,5-difluorophenyl)-2-methylpropanoic acid], the “% Activity at 5 μM” value amounted to 107%. Also, the EC50 (read-out: EC50 ≦ 1 μM) is no more than 1000 nM.

For the compound `O=C(O)C(F)(F)Cc1cc(F)c(OCc2cc(C(F)(F)F)nn2-c2ccc(Cl)cc2)c(F)c1` [Example 57, 3-(4-((1-(4-chlorophenyl)-3-(trifluoromethyl)-1H-pyrazol-5-yl)methoxy)-3,5-difluorophenyl)-2,2-difluoropropanoic acid], the “% Activity at 5 μM” value amounted to 85%. Besides, the 50% effective concentration (EC50) (read-out: EC50 ≦ 1 μM) is no more than 1000 nM.

With `Cc1nc(-c2ccccc2)c(COc2c(F)cc(C3CC3C(=O)O)cc2F)s1` (stereo not shown) [Example 33, 2-(3,5-difluoro-4-((2-methyl-4-phenylthiazol-5-yl)methoxy)phenyl)cyclopropane carboxylic acid], the “% Activity at 5 μM” value is 80%. In addition, under “read-out: EC50 ≦ 1 μM”, the concentration for a half-maximal effect (EC50) was no more than 1000 nM.

For the compound `Cn1ncc(COc2c(F)cc(CCC(=O)O)cc2F)c1-c1ccccc1` [Example 13, 3-(3,5-difluoro-4-((1-methyl-5-phenyl-1H-pyrazol-4-yl)methoxy)phenyl)propanoic acid], the “% Activity at 5 μM” value was found to be 73%. Besides, under setting [1], the concentration giving a half-maximal response (EC50) is 1000 to 10000 nM.

Regarding `Cc1cc(COc2ccc(CCC(C)CC(=O)O)cc2)n(-c2ccc(Cl)cc2)n1` (stereo not shown) [Example 71, 5-(4-((1-(4-chlorophenyl)-3-methyl-1H-pyrazol-5-yl)methoxy)phenyl)-3-methyl pentanoic acid], the “% Activity at 5 μM” value is given as 100%. For the setting “read-out: EC50 ≦ 1 μM”, the EC50 was no more than 1000 nM.

As for `Cc1cc(COc2ccc(CCCC(=O)O)cc2)n(-c2ccccc2)n1` [Example 45, 4-(4-((3-methyl-1-phenyl-1H-pyrazol-5-yl)methoxy)phenyl)butanoic acid], the “% Activity at 5 μM” value stood at 61%. Further, the EC50 (read-out: EC50 ≦ 1 μM) is no more than 1000 nM.

Consider `Cc1cc(COc2c(F)cc(C3=C(C(=O)O)CCC3)cc2F)n(-c2ccc(Cl)cc2)n1` [Example 107, 2-(4-((1-(4-Chlorophenyl)-3-methyl-1H-pyrazol-5-yl)methoxy)-3,5-difluorophenyl)cyclopent-1-enecarboxylic acid], for which the “% Activity at 5 μM” value is given as 32%. For the same compound, under setting [1], the 50% effective concentration (EC50) was 1000 to 10000 nM.

In the case of `CCc1ccc(-n2nc(C)cc2COc2c(F)cc(C[C@H](C)C(=O)O)cc2F)cc1` [Example 99, (S)-3-(4-((1-(4-ethylphenyl)-3-methyl-1H-pyrazol-5-yl)methoxy)-3,5-difluorophenyl)-2-methylpropanoic acid], the “% Activity at 5 μM” value is listed as 73%. In addition, the EC50 (read-out: EC50 ≦ 1 μM) is no more than 1000 nM.

Turning to `Cc1noc(-c2ccccc2)c1COc1c(F)cc(CCC(=O)O)cc1F` [Example 15, 3-(3,5-difluoro-4-((3-methyl-5-phenylisoxazol-4-yl)methoxy)phenyl)propanoic acid], the “% Activity at 5 μM” value was 72%. Moreover, the EC50 (read-out: EC50 ≦ 1 μM) was no more than 1000 nM.

For `Cc1cc(COc2c(F)cc(CC(C)C(=O)O)cc2F)n(-c2ccc(C(C)C)cc2)n1` (stereo not shown) [Example 76, 3-(3,5-difluoro-4-((1-(4-isopropylphenyl)-3-methyl-1H-pyrazol-5-yl)methoxy)phenyl)-2-methylpropanoic acid], the “% Activity at 5 μM” value was 85%. The EC50 (read-out: EC50 ≦ 1 μM) is no more than 1000 nM.

On to `Cc1cc(COc2c(F)cc(CC(C)C(=O)O)cc2F)n(-c2ccccn2)n1` (stereo not shown) [Example 124, 3-(3,5-difluoro-4-((3-methyl-1-(pyridin-2-yl)-1H-pyrazol-5-yl)methoxy)phenyl)-2-methylpropanoic acid], for which the “% Activity at 5 μM” value is recorded as 33%. For the same compound, where the note is “read-out: EC50 > 10 μM”, the EC50 was greater than 10000 nM.

As for `Cc1cc(COc2c(F)cc(CC(C)C(=O)O)cc2F)n(-c2ccccc2)n1` (stereo not shown) [Example 122, 3-(3,5-difluoro-4-((3-methyl-1-phenyl-1H-pyrazol-5-yl)methoxy)phenyl)-2-methylpropanoic acid], the “% Activity at 5 μM” value came out at 91%. Further, the EC50 (read-out: EC50 ≦ 1 μM) is no more than 1000 nM.

`Cc1cc(COc2ccc(CCC(C)C(=O)O)cc2)n(-c2ccc(Cl)cc2)n1` (stereo not shown) [Example 131, 4-(4-((1-(4-chlorophenyl)-3-methyl-1H-pyrazol-5-yl)methoxy)phenyl)-2-methylbutanoic acid]: the “% Activity at 5 μM” value came out at 68%. The EC50 under setting [1] lay within 1000 to 10000 nM.

As for `CCc1ccc(-n2nc(C)cc2COc2c(F)cc(CCCC(=O)O)cc2F)cc1` [Example 130, 4-(4-((1-(4-ethylphenyl)-3-methyl-1H-pyrazol-5-yl)methoxy)-3,5-difluorophenyl)butanoic acid], the “% Activity at 5 μM” value is reported as 103%. For the same compound, the EC50 (read-out: EC50 ≦ 1 μM) was no more than 1000 nM.

Take `Cc1cc(COc2c(F)cc(CC(C)C(=O)O)cc2F)n(-c2ccc(C(F)(F)F)cc2)n1` (stereo not shown) [Example 77, 3-(3,5-difluoro-4-((3-methyl-1-(4-(trifluoromethyl)phenyl)-1H-pyrazol-5-yl)methoxy)phenyl)-2-methylpropanoic acid]: the “% Activity at 5 μM” value is 95%. Also, the EC50 (read-out: EC50 ≦ 1 μM) was no more than 1000 nM.

Regarding `Cc1cc(COc2c(F)cc(CCCC(=O)O)cc2F)n(-c2ccc(Cl)cc2)n1` [Example 128, 4-(4-((1-(4-chlorophenyl)-3-methyl-1H-pyrazol-5-yl)methoxy)-3,5-difluorophenyl)butanoic acid], the “% Activity at 5 μM” value was 112%. Moreover, under “read-out: EC50 ≦ 1 μM”, the EC50 was no more than 1000 nM.

One may read the EC50 as the midpoint of the concentration-response curve.
